Assay results published in ChEMBL document CHEMBL5661943, “ASAP - In vitro antiviral effect” (2024).
“And” between values parts separate entries of the source, which are not always exact repeats. Identical values can stand only once.

Columns and labels:
Zika virus = assay: Functional CPE-based assay to measure dose dependent changes in antiviral-drug inhibitory efficacy against Zika virus MR766 in Vero E6 miRFP670 cells (cotreated with P-gp inhibitor, CP100356). Cells are treated with antiviral candidates that are serially diluted. EC50 is reported via analysis of MTS assay as a readout of CPE. The assay has been performed by KU Leuven.; type: organism-based, Chlorocebus sabaeus, Vero C1008; details: for EC90: P-gp concentration 500 nM, P-gp inhibitor CP100356
dengue virus type 2 = assay: Functional assay to measure dose dependent changes in antiviral-drug inhibitory efficacy against Dengue virus type 2 New Guinea C in Vero E6 miRFP670 cells (cotreated with P-gp inhibitor, CP100356). Cells are treated with antiviral candidates that are serially diluted, following infection, cells are fixed. EC50 is reported via analysis of fluorescence intensity using high-content imager. The …; type: organism-based, Chlorocebus sabaeus, Vero C1008; details: for EC90: P-gp concentration 500 nM, P-gp inhibitor CP100356

## COC(=O)c1cc(Br)cc2c(Cc3ccc(-c4nnn[nH]4)cc3)c[nH]c12
Zika virus; Zika virus, Vero C1008
  EC50: > 50 µM
Zika virus; Zika virus, Vero C1008, Baseline response 0 %, Hill slope 0.557, Maximum measured 36.25 %, Maximum response 100 %, Minimum measured -2.518 %, R squared 0.117
  EC90: > 50 µM
Dengue virus type 2; Dengue virus, Vero C1008
  EC50: > 50 µM
Dengue virus type 2; Dengue virus, Vero C1008, Maximum measured 157.502 %, Minimum measured 51.504 %
  EC90: > 50 µM

## O=C(NCC(F)F)[C@H](Nc1ccc2c(c1)CNC2)c1cc(F)cc2[nH]ncc12
Zika virus; Zika virus, Vero C1008
  EC50: 17.9 µM
Zika virus; Zika virus, Vero C1008, Baseline response 0 %, Hill slope 1.433, Maximum measured 86.437 %, Maximum response 100 %, Minimum measured 5.781 %, R squared 0.963
  EC90: > 50 µM
Dengue virus type 2; Dengue virus, Vero C1008
  EC50: > 50 µM
Dengue virus type 2; Dengue virus, Vero C1008, Maximum measured 213.694 %, Minimum measured 101.734 %
  EC90: > 50 µM

## O=C(Nc1ccc2c(c1)CNC2)c1cc(F)cc2nn(-c3ccccn3)nc12
Zika virus; Baseline response 0 %, Hill slope 0.342, Maximum measured 8.101 %, Maximum response 100 %, Minimum measured -1.287 %, R squared 0.284
  EC90: > 50 µM
Zika virus; Baseline response 0 %, Hill slope -0.391, Maximum measured 8.995 %, Maximum response 100 %, Minimum measured 1.943 %, R squared 0.39
  EC90: > 3.12 µM
Zika virus; vero c1008
  EC50: > 50 µM
Dengue virus type 2; Baseline response 0 %, EC90 CI (lower) 0.77 uM, EC90 CI (upper) 2.483 uM, Hill slope -4.828, Maximum measured 102.327 %, Maximum response 100 %, Minimum measured 2.546 %, R squared 0.795
  EC90: 3.44 µM
Dengue virus type 2; Dengue virus, Vero C1008, Baseline response 0 %, EC90 CI (lower) 0.427 uM, EC90 CI (upper) 5.546 uM, Hill slope -1.321, Maximum measured 90.171 %, Maximum response 100 %, Minimum measured 71.834 %, R squared 0.697
  EC90: > 6.25 µM
Dengue virus type 2; vero c1008
  EC50: > 6.25 µM and 2.18 µM

## O=C(Nc1ccc2c(c1)CNC2)c1cc(F)cc2[nH]c(-c3cccc(F)c3)nc12
Zika virus; Zika virus, Vero C1008
  EC50: > 50 µM
Zika virus; Zika virus, Vero C1008, Baseline response 0 %, Hill slope 2.278, Maximum measured 12.458 %, Maximum response 100 %, Minimum measured -7.568 %, R squared 0.376
  EC90: > 50 µM
Dengue virus type 2; Dengue virus, Vero C1008
  EC50: > 1.56 µM
Dengue virus type 2; Dengue virus, Vero C1008, Baseline response 0 %, Hill slope -0.435, Maximum measured 206.615 %, Maximum response 236.845 %, Minimum measured 186.851 %, R squared 0.182
  EC90: > 1.56 µM

## O=C(Nc1ccc2c(c1)CNC2)c1cc(Cl)cc2[nH]c(-c3c[nH]c(=O)c(Br)c3)nc12
Zika virus; Zika virus, Vero C1008
  EC50: > 50 µM
Zika virus; Zika virus, Vero C1008, Baseline response 0 %, Hill slope 0.525, Maximum measured 33.05 %, Maximum response 100 %, Minimum measured 2.151 %, R squared 0.865
  EC90: > 50 µM
Dengue virus type 2; Dengue virus, Vero C1008
  EC50: > 50 µM
Dengue virus type 2; Dengue virus, Vero C1008, Maximum measured 259.566 %, Minimum measured 84.768 %
  EC90: > 50 µM

## O=C(Nc1ccc2c(c1)CNC2)c1cc(F)cc(-c2cnc(C3CC3)s2)c1
Zika virus; Zika virus, Vero C1008
  EC50: 5.37 µM
Zika virus; Zika virus, Vero C1008, Baseline response 0 %, Hill slope 4.772, Maximum measured 67.326 %, Maximum response 100 %, Minimum measured 1.512 %, R squared 0.988
  EC90: > 6.25 µM
Dengue virus type 2; Dengue virus, Vero C1008
  EC50: 11.6 µM
Dengue virus type 2; Dengue virus, Vero C1008, Baseline response 0 %, Hill slope -1.802, Maximum measured 130.062 %, Maximum response 100 %, Minimum measured 44.88 %, R squared 0.382
  EC90: > 12.5 µM

## O=C(Nc1ccc2c(c1)CNC2)c1cccc2[nH]c(=O)[nH]c12
Zika virus; Zika virus, Vero C1008
  EC50: > 50 µM
Zika virus; Zika virus, Vero C1008, Maximum measured 11.079 %, Minimum measured -6.229 %
  EC90: > 50 µM
Dengue virus type 2; Dengue virus, Vero C1008
  EC50: > 12.5 µM
Dengue virus type 2; Dengue virus, Vero C1008, Baseline response 0 %, Hill slope 0.241, Maximum measured 94.031 %, Maximum response 100 %, Minimum measured 72.295 %, R squared 0.287
  EC90: > 12.5 µM

## O=C(Nc1ccc2c(c1)CNC2)c1cccc2nc(O)ccc12
Zika virus; Zika virus, Vero C1008
  EC50: > 50 µM
Zika virus; Zika virus, Vero C1008, Maximum measured -4.519 %, Minimum measured -18.451 %
  EC90: > 50 µM
Dengue virus type 2; Dengue virus, Vero C1008
  EC50: > 50 µM
Dengue virus type 2; Dengue virus, Vero C1008, Maximum measured 128.112 %, Minimum measured 90.404 %
  EC90: > 50 µM

## O=C(Nc1cc2c(c(-c3ccnnc3)c1)CNC2)c1cc(Cl)cc2[nH]ncc12
Zika virus; Zika virus, Vero C1008
  EC50: > 50 µM
Zika virus; Zika virus, Vero C1008, Baseline response 0 %, Hill slope 0.648, Maximum measured 22.176 %, Maximum response 100 %, Minimum measured 1.861 %, R squared 0.877
  EC90: > 50 µM
Dengue virus type 2; Dengue virus, Vero C1008
  EC50: > 6.25 µM
Dengue virus type 2; Dengue virus, Vero C1008, Baseline response 0 %, Hill slope 3.411, Maximum measured 174.98 %, Maximum response 100 %, Minimum measured 62.735 %, R squared 0.059
  EC90: > 6.25 µM
